# Measured values published in US5086042A, “Peptides with sulfate ester groups” (Fisons Corporation, priority 1989, dated 1992).
# Several values for one entry are separate records, joined by “and”; a condition that tells them apart may be missing. Equal entries are not always repeated. Non-standard residues stand in square brackets, D forms with d. Residues, ends and D or L forms follow the SMILES beside them. sY = N[C@@H](Cc1ccc(OS(=O)(=O)O)cc1)C(=O)O
# Test system: Male Sprague-Dawley rats
# Assay type: in vivo
# Settings: rat, intraperitoneal; for % FEEDING INHIBITION 0.5 hr / % FEEDING INHIBITION 3 hr: 30 μg/kg, vs saline controls; for % FEEDING INHIBITION 0.5 hr / % FEEDING INHIBITION 0.5 hr (values marked *) / feeding inhibition during the 0.5 hour feeding period: 0.5 hr feeding period; for % FEEDING INHIBITION 3 hr (values marked *) / % FEEDING INHIBITION 0.5 hr (values marked *): 300 μg/kg, <10% inhibition at 30 μg/kg; for % FEEDING INHIBITION 3 hr (values marked *) / % FEEDING INHIBITION 3 hr / feeding inhibition during the 3 hour feeding period: 3 hr feeding period; for % FEEDING INHIBITION 3 hr: IA means inactive; for feeding inhibition during the 0.5 hour feeding period: 0.3 μg/kg; for feeding inhibition during the 3 hour feeding period: 3 μg/kg
# Protocol: The peptides of this invention have the ability to inhibit feeding activity in mammals. As a result they have utility in the prevention and treatment of obesity.
# Male Sprague-Dawley rats (weighing 300-350 g) are individually caged and maintained on a 12 hr. light, dark cycle and trained for at least 14 days to feed during a three hr period of the dark cycle but not the 21 hours preceding that three hr period. The day of the study, rats are dosed intraperitoneally with saline (controls) or test compound (dissolved in saline; usually at a concentration of 0.3 to 300 micrograms of test compound per kg of rat weight). Food is introduced 10 minutes after administration of saline or test compound. […] The % feeding inhibition for the 1/2 hr and 3 hr feeding periods obtained by administering a dose of 30 μg/kg of test compound is given in Table 2 for CCK-8 and various compounds of the invention. For example, the % feeding inhibition obtained with CCK-8 (first line of Table 2) was 70% for the 1/2 hr feeding period and 25% for the 3-hour period.
Compound,% FEEDING INHIBITION 0.5 hr [%],% FEEDING INHIBITION 3 hr (values marked *) [%],% FEEDING INHIBITION 0.5 hr (values marked *) [%],% FEEDING INHIBITION 3 hr [%],feeding inhibition during the 0.5 hour feeding period,feeding inhibition during the 3 hour feeding period
CSCC[C@H](NC(=O)[C@H](Cc1ccc(OS(=O)(=O)O)cc1)NC(=O)[C@@H](N)CC(=O)O)C(=O)NCC(=O)N[C@@H](Cc1c[nH]c2ccccc12)C(=O)N[C@@H](CCSC)C(=O)N[C@H](CC(=O)O)C(=O)N[C@@H](Cc1ccccc1)C(N)=O [H-Asp-Tyr(SO3 H)-Met-Gly-Trp-Met-DAsp-Phe-NH2],32,15,,,,
CSCC[C@H](NC(=O)[C@H](Cc1ccc(OS(=O)(=O)O)cc1)NC(=O)[C@@H](N)CC(=O)O)C(=O)NCC(=O)N[C@@H](Cc1c[nH]c2ccccc12)C(=O)N[C@@H](CCSC)C(=O)N[C@@H](CC(=O)O)C(=O)N[C@H](Cc1ccccc1)C(N)=O [H-Asp-Tyr(SO3 H)-Met-Gly-Trp-Met],46,14,,,,
CSCC[C@H](NC(=O)[C@H](Cc1c[nH]c2ccccc12)NC(=O)CN(C)C(=O)[C@H](CCSC)NC(=O)[C@H](Cc1ccc(OS(=O)(=O)O)cc1)NC(=O)[C@@H](N)CC(=O)O)C(=O)N[C@@H](CC(=O)O)C(=O)N[C@@H](Cc1ccccc1)C(N)=O [H-Asp-Tyr(SO3 H)-Met-Sar-Trp-Met-Asp-Phe-NH2],,,55,,,
CSCC[C@H](NC(=O)[C@H](Cc1ccc(OS(=O)(=O)O)cc1)NC(=O)[C@@H](N)CC(=O)O)C(=O)NCC(=O)N[C@@H](Cc1ccc2ccccc2c1)C(=O)N[C@@H](CCSC)C(=O)N[C@@H](CC(=O)O)C(=O)N[C@@H](Cc1ccccc1)C(N)=O [H-Asp-Tyr(SO3)-Met-Gly-Nal-Met-Asp-Phe-NH2] (HELM PEPTIDE1{D.[O=C([C@H](Cc1ccc(OS(=O)(=O)O)cc1)N[*:1])[*:2]].M.G.[O=C([C@H](Cc1ccc2ccccc2c1)N[*:1])[*:2]].M.D.F.[am]}$$$$V2.0),,,52,,,
CNC(=O)[C@H](Cc1ccccc1)NC(=O)[C@H](CC(=O)O)NC(=O)[C@H](CCSC)NC(=O)[C@H](Cc1c[nH]c2ccccc12)NC(=O)CNC(=O)[C@H](CCSC)NC(=O)[C@H](Cc1ccc(OS(=O)(=O)O)cc1)NC(=O)[C@@H](N)CC(=O)O [H-Asp-Tyr(SO 3 H)-Met-Gly-Trp-Met-Asp-Phe-NHMe],,,13,,,
CSCC[C@H](NC(=O)[C@H](Cc1ccc(OS(=O)(=O)O)cc1)NC(=O)[C@H](N)CC(=O)O)C(=O)NCC(=O)N[C@@H](Cc1c[nH]c2ccccc12)C(=O)N[C@@H](CCSC)C(=O)N[C@@H](CC(=O)O)C(=O)N[C@@H](Cc1ccccc1)C(N)=O [H-DAsp-Tyr(SO3 H)-Met-Gly-Trp-Met-Asp-Phe-NH2],99,,,40,,
"CSCC[C@H](NC(=O)[C@H](Cc1c[nH]c2ccccc12)NC(=O)CNC(=O)[C@H](CCSC)NC(=O)[C@@H](N)Cc1ccc(OS(=O)(=O)O)cc1)C(=O)N[C@@H](CC(=O)O)C(=O)N[C@@H](Cc1ccccc1)C(N)=O [H-Try(SO3 H)-Met-Gly-Trp-Met-Asp-Phe-NH2, H-Tyr(SO3 H)-Met-Gly-Trp-Met-Asp-Phe-NH2] (HELM PEPTIDE1{[N[C@@H](Cc1ccc(OS(=O)(=O)O)cc1)C(=O)[*:2]].M.G.W.M.D.F.[am]}$$$$V2.0)",50,30,,,,
CSCC[C@H](NC(=O)[C@H](Cc1ccc(OS(=O)(=O)O)cc1)NC(=O)C[C@H](N)C(=O)O)C(=O)NCC(=O)N[C@@H](Cc1c[nH]c2ccccc12)C(=O)N[C@@H](CCSC)C(=O)N[C@@H](CC(=O)O)C(=O)N[C@@H](Cc1ccccc1)C(N)=O [H-βAsp-Tyr(SO3 H)-Met-Gly-Trp-Met-Asp-Phe-NH2],91,,,21,,
CC[C@H](C)[C@H](NC(=O)[C@H](Cc1ccc(OS(=O)(=O)O)cc1)NC(=O)CCC(=O)O)C(=O)NCC(=O)N[C@@H](Cc1c[nH]c2ccccc12)C(=O)N[C@H](C(=O)N[C@@H](CC(=O)O)C(=O)N[C@@H](Cc1ccccc1)C(N)=O)[C@@H](C)CC [Suc-Tyr(SO3 H)-Ile-Gly-Trp-Ile-Asp-Phe-NH2] (HELM PEPTIDE1{[O=C(O)CCC(=O)[*:2]].[O=C([C@H](Cc1ccc(OS(=O)(=O)O)cc1)N[*:1])[*:2]].I.G.W.I.D.F.[am]}$$$$V2.0),73,,,54,,
CSCC[C@H](NC(=O)[C@H](Cc1c[nH]c2ccccc12)NC(=O)[C@@H](C)NC(=O)[C@H](CCSC)NC(=O)[C@H](Cc1ccc(OS(=O)(=O)O)cc1)NC(=O)CCC(=O)O)C(=O)N[C@@H](CC(=O)O)C(=O)N[C@@H](Cc1ccccc1)C(N)=O [Suc-Tyr(SO3 H)-Met-DAla-Trp-Met-Asp-Phe-NH2] (HELM PEPTIDE1{[O=C(O)CCC(=O)[*:2]].[O=C([C@H](Cc1ccc(OS(=O)(=O)O)cc1)N[*:1])[*:2]].M.[dA].W.M.D.F.[am]}$$$$V2.0),75,,,30,,
CSCC[C@H](NC(=O)[C@H](Cc1ccc(OS(=O)(=O)O)cc1)NC(=O)CCC(=O)O)C(=O)NCC(=O)N[C@@H](Cc1c[nH]c2ccccc12)C(=O)N[C@@H](CCSC)C(=O)N[C@@H](CC(=O)O)C(=O)N[C@@H](Cc1ccccc1)C(N)=O [Suc-Tyr(SO3 H)-Met-Gly-Trp-Met-Asp-Phe-NH2] (HELM PEPTIDE1{[O=C(O)CCC(=O)[*:2]].[O=C([C@H](Cc1ccc(OS(=O)(=O)O)cc1)N[*:1])[*:2]].M.G.W.M.D.F.[am]}$$$$V2.0),75,,,55,,
H-Asp-Tyr(SO3 H)-Ahx-Gly-Trp-Ahx-Asp-Phe-NH2,82,,,27,,
H-Asp-Tyr(SO3 H)-Met-Gly-Trp-Ahx-Asp-Phe-NH2,82,,,23,,
H-Asp-Tyr(SO3 H)-Met-Gly-Trp-Met-Asp-Tyr-NH2 (H-D[sY]MGWMDY-NH2; not fully specified),,,23,,,
Hpp(SO3 H)-Ahx-Gly-Trp-Ahx-Asp-Phe-NH2,100,,,99,20-72%,50-90%
Hpp(SO3 sH)-Ahx-Gly-Trp-Ahx-Asp-MePhe-NH2 [Hpp(SO3 H)-Ahx-Gly-Trp-Ahx-Asp-MePhe-NH2],94,,,96,20-72%,50-90%
Hpp(SO3 sH)-Ile-Gly-Trp-Ahx-Asp-MePhe-NH2 [Hpp(SO3 H)-Ile-Gly-Trp-Ahx-Asp-MePhe-NH2],98,,,100,20-72%,50-90%
Suc-Tyr(SO3 H)-Ahx-Gly-Trp-Ahx-Asp-Phe-NH2,100,,,97,20-72%,50-90%
Suc-Tyr(SO3 H)-Ile-Gly-Trp-Ahx-Asp-MePhe-NH2,100,,,100,20-72%,50-90% and 90%
Suc-Tyr(SO3 ° H)-Ahx-Gly-Trp-Ahx-Asp-MePhe-NH2,100,,,98,20-72%,50-90%
iBuOCO-Tyr(SO3 H)-Ahx-Gly-Trp-Ahx-Asp-MePhe-NH2,100,,,100,20-72%,50-90%
iBuOCO-Tyr(SO3 H)-Ahx-Gly-Trp-Ahx-Asp-Phe-NH2,100,,,100,20-72%,50-90%
